According to BindingDB's records for patent US20240287037 (Plexium, 2024):

Target: Protein cereblon (Homo sapiens, UniProt Q96SW2)
Assay: Bioluminescence Resonance Energy Transfer (BRET)
Experimental: 2 uL of 10 uM CRBN tracer (diluted 1:5 in Tracer Dilution Buffer) was added to each well. Plates were centrifuged at 320 g for 1 min at room temperature. […] Plates were shaken for 2 minutes on a microplate shaker to mix compounds. Plates were centrifuged at 320 g for 1 min at room temperature, and subsequently incubated for 2 hours at 37 C.After incubation, plates were allowed to cool to room temperature for 15 minutes. […] Plates were read on a CLARIOstar microplate reader (BMG LabTech), measuring at 450 nm (donor emission) and 610 nm (acceptor emission).

Protein cereblon, sequence (Q96SW2 whole entry): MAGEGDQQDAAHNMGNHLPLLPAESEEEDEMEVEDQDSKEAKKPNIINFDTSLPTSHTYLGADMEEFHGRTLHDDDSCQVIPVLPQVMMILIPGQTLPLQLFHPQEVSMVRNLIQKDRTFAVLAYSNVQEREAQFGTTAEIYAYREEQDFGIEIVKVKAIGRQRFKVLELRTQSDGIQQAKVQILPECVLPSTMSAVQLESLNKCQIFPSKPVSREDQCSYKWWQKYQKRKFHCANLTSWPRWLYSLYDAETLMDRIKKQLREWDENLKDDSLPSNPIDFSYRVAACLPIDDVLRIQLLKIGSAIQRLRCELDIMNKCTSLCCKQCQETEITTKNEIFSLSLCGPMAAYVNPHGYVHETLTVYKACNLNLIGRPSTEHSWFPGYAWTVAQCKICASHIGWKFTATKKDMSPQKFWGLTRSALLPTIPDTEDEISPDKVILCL

Compound: N#CC1(C2CN([C@H]3CCCC[C@@H]3Oc3ccc4c(c3)CN(C3CCC(=O)NC3=O)C4=O)C2)CCC1 (stereo partly specified) [US20240287037, Example 23]
- EC50: 28 nM
